The results in this text go back to patent publication US6344564B1, “Fungicidal 2-imidazolin-5-ones and 2-imidazoline-5-thiones” (priority 1992, dated 2002).

In one series the test system is Phytophthora infestans. It is filed as in vivo. Particulars: concentration at which 75% inhibition of the disease is observed; tomato seedlings (Marmande) sprayed 24 hours before infection with Phytophthora infestans spores; read seven days after infecting vs controls.
Another series has as its system Pythium rostratum. Nature of the series: In vitro test on PDA medium, Pythium rostratum. The following applies: Globisporangium rostratum, 120 h, read-out: degree of inhibition of the fungus.
The next series concerns Pythium vexans. Kind of series: In vitro test on PDA medium, Pythium vexans. Particulars: Phytopythium vexans, 120 h, read-out: degree of inhibition of the fungus.
The next series relates to Puccinia recondita. Kind of series: In vivo test on Puccinia recondita (brown rust of wheat). Particulars: read-out: protection.
The next series has as its system Plasmopara viticola. Nature of the series: In vivo test on Plasmopara viticola (grape downy mildew). Particulars: in Vitis vinifera, 168 h, read-out: protection.
The test system of another series is Alternaria alternata. Nature of the series: In vitro test on PDA medium, Alternaria alternata. The following applies: 120 h, read-out: degree of inhibition of the fungus.
Series [1] concerns Helminthosporium gramineum. Kind of series: In vitro test on PDA medium, Helminthosporium gramineum. The class given is cell-based. Particulars: 120 h, dose of 20 ppm in PDA medium, 5 days at 20° C., compared with control dish, read-out: degree of inhibition of the fungus.

Protocol for Alternaria alternata: (§1) Each test is carried out in the following way: a nutrient medium consisting of potato, glucose and gelose (PDA medium) is introduced in the supercooled state into a series of Petri dishes (100 ml per dish) after sterilization in an autoclave at 120° C.
(§2) While filling the dishes, an acetone solution of the active material is injected into the supercooled medium to obtain the desired final concentration.
(§3) After 24 hours, each dish is cultured by depositing a fragment of ground mycelium arising from a previous culture of the same fungus.
(§4) For each compound tested, the degree of inhibition of the fungus studied is thus determined for a dose of 20 ppm.
Protocol for Pythium rostratum: as §1, §2, §3, §4
Protocol for Pythium vexans: as §1, §2, §3, §4

Regarding `CSC1=NC(C)(c2ccc(F)cc2)C(=O)N1Nc1ccccc1` (racemic) [511 + 512], the “IC75 (ppm)” value with Phytophthora infestans is 110 ppm.
For the compound `CSC1=NC(C)(c2ccccc2)C(=O)N1N(C(C)=O)c1ccccc1` (stereo not drawn) [Compound 23, 4-methyl-1-(N-acetyl-N-phenylamino)-2-methylthio-4-phenyl-2-imidazolin-5-one], the melting point turned out to be 132 °C.
On to `CC1=NC(C)(c2ccccc2)C(=O)N1Nc1ccccc1` (stereo not drawn) [Compound 201, 2,4-dimethyl-4-phenyl-1-phenylamino-2-imidazolin-5-one], for which the melting point was 135 °C.
On to `CSC1=NC(C)(c2ccccc2)C(=O)N1Nc1ccccc1` (racemic) [501 + 502], for which the “IC75 (ppm)” value in the series on Phytophthora infestans came to 110 ppm.
Compound `CSC1=NC(c2ccccc2)C(=O)N1Nc1ccccc1` (stereo not drawn) yielded a melting point of 190 °C.
The compound `COC1=NC(C)(c2ccccc2)C(=O)N1Nc1ccccc1` (stereo not drawn) [Compound 504] returned a melting point of 132 °C. The “IC75 (ppm)” value with Phytophthora infestans is recorded as greater than 1000 ppm.
As for `CSC1=NC2(CCCc3ccccc32)C(=O)N1Nc1ccccc1` (stereo not drawn) [Compound 97], the melting point was 158 °C.
As for `COC1=NC(C)(c2ccc(F)cc2)C(=O)N1Nc1ccccc1` (single isomer, unassigned) [Compound 526], the “IC75 (ppm)” value in the series on Phytophthora infestans is greater than 1000 ppm.
Same read-out and setting: the same measure for `COC1=NC(C)(c2ccccc2)C(=O)N1Nc1ccccc1` (racemic) [503 + 504]: 330 ppm.
The compound `CCC1(c2ccccc2)N=C(SC)N(Nc2ccccc2)C1=O` (stereo not drawn) [Compound 48, 4-ethyl-2-methylthio-4-phenyl-1-phenylamino-2-imidazolin-5-one] gave a melting point of 147 °C.
On to `CSC1=NC(C)(c2cccnc2)C(=O)N1Nc1ccccc1` (stereo not drawn), for which the melting point was determined as 156 °C.
Regarding `CSC1=N[C@@](C)(c2ccccc2)C(=O)N1Nc1ccccc1` [Compound 501, (+)-(4S)-4-methyl-2-methylthio-4-phenyl-1-phenylamino-2-imidazolin-5-one], the “IC75 (ppm)” value in the series with Phytophthora infestans is reported as 37 ppm.
For `CSC1=NC(C)(c2ccccc2)C(=O)N1Cc1ccccc1` (stereo not drawn) [Compound 34, 1-benzyl-4-methyl-2-methylthio-4-phenyl-2-imidazolin-5-one], the inhibition at 20 ppm in the series on Pythium rostratum and in the series on Pythium vexans was 80 to 100% throughout.
With `COC1=NC(C)(c2ccc(F)cc2)C(=O)N1Nc1cccc(F)c1` (single isomer, unassigned) [Compound 527], the “IC75 (ppm)” value in the series with Phytophthora infestans is given as 4-12 ppm.
On the same count and under the same terms, the same measure for `COC1=NC(C)(c2ccc(F)cc2)C(=O)N1Nc1ccccc1` (racemic) [525 + 526]: 110 ppm; for `CSC1=N[C@@](C)(c2ccc(F)cc2)C(=O)N1Nc1cccc(F)c1` [Compound 513]: 37 ppm.
In the case of `CSC1=NC2(CCCc3ccccc32)C(=O)N1Nc1ccc(Cl)cc1` (stereo not drawn), the melting point turned out to be 191 °C.
For the compound `COC1=NC2(CCCc3ccccc32)C(=O)N1Nc1ccccc1` (stereo not drawn) [Compound 407], the pest or weed control at 1000 µg/mL in the series with Puccinia recondita and in the series with Plasmopara viticola was no less than 75% throughout.
With `CSC1=NC(C)(Cc2ccccc2)C(=O)N1Nc1ccccc1` (stereo not drawn), the melting point was determined as 166 °C.
The same measure, in the same setting: next, `CSC1=NC2(CCCc3ccccc32)C(=O)N1Nc1ccccc1Cl` (stereo not drawn) [Compound 104]: 168 °C; `CSC1=NC(C)(c2ccccc2)C(=S)N1Nc1ccccc1` (stereo not drawn) [Compound 1, 4-methyl-2-methylthio-4-phenyl-1-phenylamino-2-imidazoline-5-thione]: 127 °C.
For the compound `COC1=NC(C)(c2ccc(F)cc2)C(=O)N1Nc1ccccc1` (single isomer, unassigned) [Compound 525], the “IC75 (ppm)” value in the series on Phytophthora infestans is listed as 37 ppm.
On to `CSC1=NC2(CCc3ccccc32)C(=O)N1Nc1ccccc1` (stereo not drawn) [Compound 98], for which the melting point was found to be 85 °C.
In the case of `CSC1=N[C@@](C)(c2ccc(F)cc2)C(=O)N1Nc1ccccc1` [Compound 511], the “IC75 (ppm)” value in the series with Phytophthora infestans is 12-37 ppm.
Regarding `COC1=NC2(CCc3ccccc32)C(=O)N1Nc1ccccc1` (stereo not drawn) [Compound 410], the pest or weed control at 1000 µg/mL with Puccinia recondita and in the series with Plasmopara viticola was no less than 75% throughout.
Consider `CSC1=NC2(CCCc3ccccc32)C(=O)N1Nc1ccccc1C` (stereo not drawn), for which the melting point was found to be 174 °C.
Take `CSC1=NC(C)(c2ccc(F)cc2)C(=O)N1Nc1cccc(F)c1` (racemic) [513 + 514]: in the series on Phytophthora infestans, the “IC75 (ppm)” value is reported as 110 ppm.
On the same count and under the same terms, next, `COC1=NC(C)(c2ccc(F)cc2)C(=O)N1Nc1cccc(F)c1` (racemic) [527 + 528]: 37 ppm.
On the same count and under the same terms, the same measure for `COC1=NC(C)(c2ccc(Br)cc2)C(=O)N1Nc1ccccc1` (racemic) [505 + 506]: greater than 1000 ppm.
`COC1=NC(C)(c2cccs2)C(=O)N1Nc1ccccc1` (stereo not drawn) [Compound 486]: the pest or weed control at 1000 µg/mL in the series with Puccinia recondita and in the series on Plasmopara viticola was no less than 75% in each case.
`CSC1=NC(C)(c2ccccc2)C(=O)N1N(C)c1ccccc1` (stereo not drawn) [Compound 22, 4-methyl-1-(N-methyl-N-phenylamino)-2-methylthio-4-phenyl-2-imidazolin-5-one] yielded a melting point of 124 °C. For the same compound, the inhibition at 20 ppm in the series with Pythium rostratum lay in the range of 80 to 100%. Besides, the inhibition at 20 ppm in the series with Alternaria alternata lay within 80 to 100%. In the series with Pythium vexans, the inhibition at 20 ppm was 80 to 100%.
Compound `COC1=N[C@@](C)(c2ccccc2)C(=O)N1Nc1ccccc1` [Compound 503, (+)-(4S)-4-methyl-2-methoxy-4-phenyl-1-phenylamino-2-imidazolin-5-one] gave a melting point of 132 °C. Also, the “IC75 (ppm)” value in the series on Phytophthora infestans is reported as 110 ppm.
In the case of `COC1=NC(C)(c2ccc(Br)cc2)C(=O)N1Nc1ccccc1` (stereo not drawn) [Compound 505], the melting point stood at 202 °C. In addition, in the series on Phytophthora infestans, the “IC75 (ppm)” value worked out at 37 ppm.
With `CSC1=NC(C)(c2ccccc2)C(=O)N1Nc1ccccc1` (stereo not drawn) [Compound 502], the “IC75 (ppm)” value in the series with Phytophthora infestans was greater than 1000 ppm.
With `CSC1=NC(C)(c2ccccc2)C(=O)N1Nc1ccccc1` (stereo not drawn) [Compound 9, 4-methyl-2-methylthio-4-phenyl-1-phenylamino-2-imidazolin-5-one], the inhibition at 20 ppm (in the series on Pythium rostratum; in series [1]; in the series on Pythium vexans) was 80 to 100% in each case.
Consider `COC1=NC(C)(c2ccc(Br)cc2)C(=O)N1Nc1ccccc1` (stereo not drawn) [Compound 506], for which the “IC75 (ppm)” value in the series on Phytophthora infestans is on record as greater than 1000 ppm.
